{
  "source": "patent US9895450B2",
  "about": "“Anti-wall teichoic antibodies and conjugates” (priority 2013, dated 2018)",
  "key": {"[1]": {"test_system": "MRSA (NRS384 strain of USA300)", "assay": "MIC determinations for intracellular bacteria (inside mouse peritoneal macrophages)", "assay_type": "cell-based, S. aureus", "details": "for potency at killing intracellular MRSA as free antibiotics: tested as free antibiotics; for killing of intracellular MRSA sequestered inside macrophages: dose range including serum Cmax"}, "MRSA (USA300 strain) [2]": {"test_system": "MRSA (USA300 strain)", "assay": "intravenous infection model in A/J mice", "assay_type": "in vivo", "protocol": "Efficacy of the AAC in an intravenous infection model was also examined. In this model, S. aureus is taken up by circulating neutrophils shortly after infection such that the majority of bacteria found in blood are associated with host cells within minutes after infection (Rogers, et al (1956) J. Exp. Med. 103:713-742). A/J Mice were infected with 2×10^6 CFU of MRSA by intravenous injection, and then treated with 50 mg/Kg of AACs by intravenous injection 30 minutes post infection. In this model, the primary site of infection is the kidney, and mice develop large abscesses that are detectable by two days post infection and fail to be cleared for up to 30 days in the absence of treatment.\nTreatments were delivered by IV injection 30 minutes post infection and kidneys were harvested 4 days post infection. The grey dashed line indicates the limit of detection for each organ.\nEfficacy of AAC made with pipBOR and dimethyl-pipBOR antibiotic moieties was compared in vivo in the intravenous infection model in A/J mice. […] Seven week old female A/J Mice were infected with 2×10^6 CFU of MRSA (USA300 strain) by intravenous injection into the tail vein. […] Treatments with S4497 antibody, AAC 102 or AAC 105 were administered at the indicated doses 30 minutes after infection. Mice were sacrificed 4 days after infection and the total number of surviving bacteria per mouse (2 kidneys pooled) was determined by plating.\n(§1) Intravenous Infection Model: 7 week old female mice were used for all in vivo experiments and infections were carried out by intravenous injection into the tail vein. A/J mice (Jackson Lab) were infected with a dose of 2×10^6 CFU. Balb/c mice (Charles River Laboratories, Hollister, Calif.) were infected with a dose of 2×10^7 CFU. […] The total number of bacteria recovered per mouse (2 kidneys) was determined by plating serial dilutions of the tissue homogenate in PBS 0.05% Tween on Tryptic Soy Agar with 5% defibrinated sheep blood."}, "MRSA [3]": {"test_system": "MRSA", "assay": "growth inhibition assay / cathepsin release assay", "assay_type": "cell-based, S. aureus", "details": "MRSA cultured overnight with up to 10 μg/mL of AAC", "protocol": "An AAC comprising antibody rF1, which binds to a family of cell wall associated proteins was conjugated to a rifamycin derivative. S. aureus (Newman strain) was treated with various doses of the rF1-AAC or with equivalent doses of either antibody alone, rifampicin alone or a mixture of antibody and free rifampicin to permit antibody binding to the bacteria (opsonization) and after 1 hour incubation the opsonized bacteria were fed to macrophages (FIG. 7A).\nSee: page 863 of Dubowchik et al (2002) Bioconj. Chem. 13:855-869, incorporated by reference for the purposes of this assay. Cathepsin B (from bovine spleen, SIGMA C7800) was added at 10 μg/mL and the samples were incubated for 1 hour at 37° C. As a control, AAC were incubated in buffer alone. The reaction was stopped by addition of 10 volumes of bacterial growth media, Tryptic Soy Broth pH 7.4 (TSB). To estimate the total release of active antibiotic, serial dilutions of the reaction mixture were made in quadruplicate in TSB in 96 well plates and the USA300 strain of S. aureus was added to each well at a final density of 2×10^3 CFU/mL. The cultures were incubated over night at […] with shaking and bacterial growth was measured by reading absorbance at 630 nm using a plate reader."}, "MRSA (USA300 strain) [4]": {"test_system": "MRSA (USA300 strain)", "assay": "in vitro macrophage assay (intracellular killing of opsonized MRSA)", "assay_type": "cell-based, S. aureus", "details": "50 μg/mL; macrophages, osteoblasts (MG63), airway epithelial cells (A549), HUVEC", "method": "Isolation of Peritoneal Macrophages: Peritoneal macrophages were isolated from the peritoneum of 6-8 week old Balb/c mice (Charles River Laboratories, Hollister, Calif.). To increase the yield of macrophages, mice were pre-treated by intraperitoneal injection with 1 mL of thioglycolate media (Becton Dickinson). The thioglycolate media was prepared at a concentration of 4% in water, sterilized by autoclaving, and aged for 20 days to 6 months prior to use. Peritoneal macrophages were harvested 4 days post treatment with thioglycolate by washing the peritoneal cavity with cold phosphate buffered saline. Macrophages were plated in Dulbecco's Modified Eagle Medium (DMEM) supplemented with 10% Fetal Calf Serum, and 10 mM HEPES, without antibiotics, at a density of 4×10^5 cells/well in 24 well culture dishes. Macrophages were cultured over night to permit adherence to the plate. This assay was also utilized to test intracellular killing in non-phagocytic cell types. […]\nInfection of Macrophages with Opsonized MRSA: The USA300 strain of MRSA (NRS384) was obtained from the NARSA repository (Chantilly, Va.). […] Serial dilutions of the lysate were made in phosphate buffered saline solution supplemented with 0.05% Tween-20 (to disrupt aggregates of bacteria) and the total number of surviving intracellular bacteria was determined by plating on Tryptic Soy Agar with 5% defibrinated sheep blood."}, "[5]": {"details": "clinically achieveable serum levels; cited from earlier work"}, "MRSA [6]": {"test_system": "MRSA", "details": "vancomycin 2 and 20 μg/mL; rifampin 0.02 and 0.2 μg/mL; TSB"}, "MRSA (USA300)": {"test_system": "MRSA (USA300)", "assay": "intravenous infection model in CB17.SCID mice reconstituted with human IgG (SCID:huIgG)", "assay_type": "in vivo", "details": "twice-daily 100 mg/Kg, treatment initiated more than 1 day post infection", "protocol": "To confirm that the AAC would be effective in the presence of competing human antibodies in vivo, the in vivo infection model was modified to generate mice that express normal levels of human IgG in the serum. […] Four days after infection the bacterial load in the kidneys (FIG. 10C) was assessed.\nCB17.SCID mice were reconstituted with human IgG using a dosing regimen optimized to yield constant levels of at least 10 mg/mL of human IgG in serum.\nEfficacy of the AAC was compared with that of treatment with vancomycin, the current standard of care treatment for MRSA infections. […]\nCB17.SCID mice were reconstituted with human IgG using a dosing regimen optimized to yield constant levels of at least 10 mg/mL of human IgG in serum and infected with 2×10^7 CFU of USA300 by intravenous injection. […] The mice were sacrificed on day 4 post infection, and the total number of surviving bacteria in kidneys (2 kidneys pooled, FIG. 21) and heart (FIG. 22) was determined by plating.\nas §1, with “vein.” for “vein. A/J mice (Jackson Lab) were infected with a dose of 2×10^6 CFU. Balb/c mice (Charles River Laboratories, Hollister, Calif.) were infected with a dose of 2×10^7 CFU.”"}, "USA300": {"test_system": "USA300", "assay": "intravenous infection model in Balb/c mice, pre-treatment", "assay_type": "in vivo", "details": "antibodies 50 mg/Kg IV 30 minutes prior to infection; vancomycin 110 mg/Kg twice daily IP; day 4", "protocol": "Balb/c mice were given a single dose of vehicle control (PBS) or 50 mg/Kg of antibodies by intravenous injection 30 minutes prior to infection with 2×10^7 CFU of USA300. […] Control mice were given twice daily treatments with 110 mg/Kg of vancomycin by intraperitoneal injection (Vanco). All mice were sacrificed on day 4 post-infection, and the total number of surviving bacteria in kidneys (2 kidneys pooled) was determined by plating.\n(§2) Intravenous Infection Model: 7 week old female mice were used for all in vivo experiments and infections were carried out by intravenous injection into the tail vein. A/J mice (Jackson Lab) were infected with a dose of 2×10^6 CFU. Balb/c mice (Charles River Laboratories, Hollister, Calif.) were infected with a dose of 2×10^7 CFU. For studies examining the role of competing human IgG (SCID IVIG model), CB17.SCID mice (Charles River Laboratories, Hollister, Calif.) were reconstituted with GammaGard S/D IGIV Immune Globulin (ASD Healthcare, Brooks Ky.) using a dosing regimen optimized to achieve constant serum levels of >10 mg/mL of human IgG. […] The total number of bacteria recovered per mouse (2 kidneys) was determined by plating serial dilutions of the tissue homogenate in PBS 0.05% Tween on Tryptic Soy Agar with 5% defibrinated sheep blood."}, "MRSA [7]": {"test_system": "MRSA", "assay": "intravenous infection model in CB17.SCID mice, treatment 1 day after infection", "assay_type": "in vivo", "details": "AAC 50 mg/Kg or antibiotic 0.5 mg/Kg, 1 day post infection; kidneys day 4", "protocol": "One day after infection, the mice were treated with 50 mg/Kg of S4497 antibody, 50 mg/Kg of S4497 dimethyl-pipBOR AAC 105 or with 0.5 mg/Kg of dimethyl-pipBOR antibiotic 7, the equivalent dose of antibiotic that is contained in 50 mg/Kg of AAC). Mice were sacrificed 4 days after infection and the total number of surviving bacteria per mouse (2 kidneys pooled) was determined by plating.\nas §2"}},
  "data": [
    {"compound": "piperidyl benzoxazino rifamycin [pipBOR]", "values": [
      {"measurement": "potency at killing intracellular MRSA as free antibiotics", "setting": "[1]", "value": "more potent than rifampicin"}
    ]},
    {"compound": "thio-S4497-HC-A118C-MC-vc-PABC-(pipBOR) [rifa-102]", "values": [
      {"measurement": "efficacy at the highest dose", "setting": "MRSA (USA300 strain) [2]; 50 mg/Kg", "value": "effective"},
      {"measurement": "efficacy in kidney infection", "setting": "MRSA (USA300 strain) [2]; 50 mg/Kg IV 30 minutes post infection, kidneys 4 days post infection", "value": "cleared the infection in all of the mice tested"},
      {"measurement": "efficacy at lower doses", "setting": "MRSA (USA300 strain) [2]; doses below 50 mg/Kg", "value": "only partially efficacious"},
      {"measurement": "inhibition of bacterial growth by intact AAC", "setting": "MRSA [3]", "value": "did not result in inhibition of bacterial growth unless the AACs were pre-treated with cathepsin B"},
      {"measurement": "intracellular killing of MRSA", "setting": "MRSA (USA300 strain) [4]", "value": "effectively killed"}
    ]},
    {"compound": "CN[C@H](CC(C)C)C(=O)N[C@H]1C(=O)N[C@@H](CC(N)=O)C(=O)N[C@H]2C(=O)N[C@H]3C(=O)N[C@H](C(=O)N[C@H](C(=O)O)c4cc(O)cc(O)c4-c4cc3ccc4O)[C@H](O)c3ccc(c(Cl)c3)Oc3cc2cc(c3O[C@@H]2O[C@H](CO)[C@@H](O)[C@H](O)[C@H]2O[C@H]2C[C@](C)(N)[C@H](O)[C@H](C)O2)Oc2ccc(cc2Cl)[C@H]1O", "note": "[Vancomycin, vancomycin]", "values": [
      {"measurement": "Serum Cmax", "setting": "[5]", "value": "10 to 40", "unit": "µg/mL"},
      {"measurement": "bacteria remaining viable during the first two hours of antibiotic treatment", "setting": "MRSA [6]", "value": 90, "unit": "%"},
      {"measurement": "loss in viable bacteria by 5 hours", "setting": "MRSA [6]", "value": 100, "unit": "fold"},
      {"measurement": "reduction of bacterial loads", "setting": "MRSA (USA300)", "value": "about 50 fold"},
      {"measurement": "killing of intracellular MRSA sequestered inside macrophages", "setting": "[1]", "value": "failed to kill"},
      {"measurement": "effect of pre-treatment on bacterial loads in kidneys", "setting": "USA300", "value": "cleared the infection in all of the mice tested"}
    ]},
    {"compound": "CO[C@H]1/C=C/O[C@@]2(C)Oc3c(C)c(O)c4c(=O)c(c5oc6cc(N7CCC(N(C)C)CC7)cc(O)c6nc-5c4c3C2=O)NC(=O)/C(C)=C\\C=C\\[C@H](C)[C@H](O)[C@@H](C)[C@@H](O)[C@@H](C)[C@H](OC(C)=O)[C@@H]1C", "note": "[dimethyl-pipBOR, dimethylpiperidyl benzoxazino rifamycin]", "values": [
      {"measurement": "efficacy against established infection", "setting": "MRSA [7]", "value": "failed to clear the infection"},
      {"measurement": "potency at killing intracellular MRSA as free antibiotics", "setting": "[1]", "value": "more potent than rifampicin"}
    ]},
    {"compound": "CCCCCCCCCC(=O)N[C@@H](Cc1c[nH]c2ccccc12)C(=O)N[C@H](CC(N)=O)C(=O)N[C@@H](CC(=O)O)C(=O)N[C@@H]1C(=O)NCC(=O)N[C@@H](CCCN)C(=O)N[C@@H](CC(=O)O)C(=O)N[C@H](C)C(=O)N[C@@H](CC(=O)O)C(=O)NCC(=O)N[C@H](CO)C(=O)N[C@@H]([C@H](C)CC(=O)O)C(=O)N[C@@H](CC(=O)c2ccccc2N)C(=O)O[C@@H]1C", "note": "[Daptomycin, daptomycin]", "values": [
      {"measurement": "killing of intracellular MRSA sequestered inside macrophages", "setting": "[1]", "value": "failed to kill"}
    ]},
    {"compound": "CC(=O)NC[C@H]1CN(c2ccc(N3CCOCC3)c(F)c2)C(=O)O1", "note": "[Linezolid, linezolid]", "values": [
      {"measurement": "MIC", "setting": "[1]; Staphylococcus aureus, MRSA inside mouse peritoneal macrophages, antibiotic added 1 day after infection, survival 24 hours later", "value": "> 20", "unit": "mg/L"},
      {"measurement": "killing of intracellular MRSA sequestered inside macrophages", "setting": "[1]", "value": "failed to kill"}
    ]}
  ]
}
